Measurements: ChEMBL document CHEMBL1130967, “Modulation of apoptosis in human lymphocytes by adenosine analogues” (1998)

How the values were obtained:
Type in all cases: functional
[1] = Percentage of apoptotic cells in human peripheral blood mononuclear cells after 72 hour incubation at the concentration 60 uM; details: at 60 µM
[2] = Percentage of apoptotic cells in human peripheral blood mononuclear cells after 72 hour incubation at the concentration 10 uM; details: at 10 µM
[3] = Percentage of apoptotic cells in human peripheral blood mononuclear cells after 72 hour incubation at the concentration 1 uM; details: at 1 µM
[4] = Percentage of apoptotic cells in human peripheral blood mononuclear cells after 72 hour incubation at the concentration 30 uM; details: at 30 µM

SMILES	Apoptotic cells [1]	Apoptotic cells [2]	Apoptotic cells [3]	Apoptotic cells [4]
Nc1ccnc2c1ncn2[C@@H]1O[C@H](CO)[C@@H](O)[C@H]1O	10.7%	16.6%	8%	12.8%
Nc1nc(Cl)nc2c1ncn2C1CCC(CO)O1 (stereo not given)	11.4%	8.5%	4.7%	9.6%
OC[C@H]1O[C@@H](n2cnc3c(NC4CCCCCC4)ncnc32)C[C@@H]1O	11.1%	9.4%	8%	9.8%
OC[C@H]1O[C@@H](n2cnc3c(NC4CCCCCC4)nc(Cl)nc32)C[C@@H]1O	16.3%	7.9%	8.2%	12.3%
OC[C@H]1O[C@@H](n2cnc3c(NC4CCCC4)ncnc32)C[C@@H]1O	8.7%	7.9%	6.7%	7.1%
OC[C@H]1O[C@@H](n2cnc3c(NC4CCCC4)nc(Cl)nc32)C[C@@H]1O	38.8%	10%	4.7%	18.8%
OC[C@H]1O[C@@H](n2cnc3c(NC4CC4)ncnc32)C[C@@H]1O	10.6%	9.5%	7.1%	9.5%
OC[C@H]1O[C@@H](n2cnc3c(NC4CC4)nc(Cl)nc32)C[C@@H]1O	24.7%	7.7%	7.8%	17.9%
Nc1nccc2c1ncn2[C@@H]1O[C@H](CO)[C@@H](O)[C@H]1O	10.7%	6.5%	9.9%	11.9%
Nc1cc(Cl)nc2c1ncn2[C@@H]1O[C@H](CO)[C@@H](O)[C@H]1O	12.1%	10.4%	10.2%	11.1%
Nc1nc(I)nc2c1ncn2[C@@H]1O[C@H](CO)[C@@H](O)[C@H]1O	12.2%	12.1%	9.1%	12%
Nc1nc(Cl)nc2c1ncn2C1OC(CO)CC1O (stereo not given)	10.4%	13%	7.7%	11.4%
OC[C@H]1O[C@@H](n2cnc3c(NC4CCCC4)nc(Cl)nc32)[C@H](O)[C@@H]1O	11%	10.4%	5.4%	9.6%
Nc1nc(Cl)nc2c1ncn2[C@@H]1O[C@H](CO)[C@@H](O)[C@H]1O	91.9%	41.8%	8.8%	82.7%
OC[C@H]1O[C@@H](n2cnc3c(NC4CCCC4)cc(Cl)nc32)C[C@@H]1O	13.9%	9.7%	8.6%	12%
OC[C@H]1O[C@@H](n2cnc3c(NC4CC4)cc(Cl)nc32)C[C@@H]1O	11.4%	10.4%	7.3%	10.8%
OC[C@H]1O[C@@H](n2cnc3c(NC4CCCCCC4)ccnc32)C[C@@H]1O	9.6%	8.1%	7.7%	8.9%
OC[C@H]1O[C@@H](n2cnc3c(NC4CCCCCC4)cc(Cl)nc32)C[C@@H]1O	10.5%	7.9%	7.4%	9.6%
OC[C@H]1O[C@@H](n2cnc3c(NC4CCCC4)ccnc32)C[C@@H]1O	9.9%	9.8%	9.8%	9.5%
Nc1nc(Cl)cc2c1ncn2[C@H]1C[C@H](O)[C@@H](CO)O1	59.2%	20.2%	16.6%	34.5%
OC[C@H]1O[C@@H](n2cnc3c(NC4CCCC4)nc(Cl)cc32)C[C@@H]1O	15.2%	13.5%	13.1%	14.9%
Nc1cc(Cl)nc2c1ncn2[C@H]1C[C@H](O)[C@@H](CO)O1	10.6%	8.7%	5%	9.8%
CNC(=O)C1OC(n2cnc3c(N)nc(Cl)nc32)CC1O (stereo not given)	10.7%	8.1%	4.5%	10.4%
Nc1nc(Cl)cc2c1ncn2C1O[C@H](CO)[C@@H](O)[C@H]1O (stereo not given in full)	10.3%	9%	9.6%	9.6%
Nc1nc(Cl)nc2c1ncn2[C@H]1C[C@H](O)[C@@H](CO)O1 [CLADRIBINE]	94.7%	91.2%	91%	93.8%
